# “Also recorded” adds a separate entry of the source.
# Key:
# [1] = molecular target: CRBN-DDB1 (Homo sapiens, UniProt Q96SW2); assay: CRBN AlphaScreen (displacement of biotinylated-pomalidomide probe); assay type: binding; settings: in vitro AlphaScreen; thalidomide and lenalidomide as positive controls
# [2] = test system: Ub-tagged GFP that is constitutively targeted for proteasomal degradation; assay: Ub-GFP (GFPu-1) reporter cell line immunoblot; assay type: cell-based; settings: 16 hours
# Procedure: Cell lysates were loaded on SDS-PAGE, transferred to PVDF membrane, then immunoblotted with anti-GFP, and anti beta-actin antibodies.
# In FIG. 18, a reporter cell line expressing Ub-tagged GFP that is constitutively targeted for proteasomal degradation was treated with RA190 ([…]); and JQRA ([…]) for 16 hours. Cell lysates were loaded on SDS-PAGE, transferred to PVDF membrane, then immunoblotted with anti-GFP, and anti-alpha tubulin antibodies.
# FIGS. 19A-19I show the exemplary design and characterization of exemplary Rpn13 degrader WL40. […] WL40 was created by linking the Rpn13 inhibitor RA190 to the IMiD thalidomide as a ligand for the CRBN E3 ligase via a PEG linker. […] FIG. 19C is a schematic cartoon for the novel AlphaScreen assay to measure the binding activity of inhibitor with RPN13 proteins. […] FIG. 19E depicts immunoblot analysis of multiple myeloma 1S (MM.1S) cells, which were treated with WL40 or RA190 at the indicated concentrations and time periods; protein lysates were subjected to the immunoblot analysis using anti-Rpn13 or anti-tubulin Abs. FIG. 19F depicts flow cytometry analysis of MM.1S cells, which were treated with DMSO control, WL40 (400 nM), or RA190 (500 nM) for 16 hours; cells were then washed and stained with Rpn13 Ab conjugated with AlexaFluor-647, followed by the flow cytometry analysis. Isotype Ab conjugated to AlexaFluor-647 was used as control for non-specific binding. Data was quantified using FACS Diva (BD Biosciences, USA) and FlowJo (FlowJo LLC, USA). FIG. 19G depicts immunoblot analysis of MM.1S-CRBN KO cells, which were treated with WL40 (400 nM) or RA190 (500 nM) for 16 hours; protein lysates were subjected to the immunoblot analysis using anti-Rpn13 or anti β-actin Abs. […]
# To confirm that CRBN presence is a prerequisite for the function of WL40 in cells, CRBN-knockout (KO) MM.1S cells^27, 38 were utilized, and the effect of WL40 on Rpn13 degradation was examined. […] GFPu-1 cells were treated with WL40, and GFP levels were then analyzed using immunoblotting. […]
# [3] = molecular target: RPN13 (Homo sapiens, UniProt Q16186); assay: Rpn13 immunoblot in MM.1S cells; assay type: cell-based; parameters: endogenous in cells; host or cells: MM.1S; MM.1S-CRBN KO; RPMI-8226; ANBL6.BR; settings: MM.1S cells; for Rpn13 levels (immunoblot): 200 nM, 400 nM, 800 nM, 4, 8, 16 hours
# Procedure: Protein lysates were loaded on SDS-PAGE and transferred to PVDF membrane, and then immunoblotted with anti-alpha tubulin and Rpn13 antibodies.
# In FIG. 17, MM.1S cells were treated with RA190 or JQRA at 200 nM and 400 nM, respectively, for 48 hours; and treated with RA190 or JQRA at 200 nM and 800 nM, respectively, for 48 hours. Protein lysates were loaded on SDS-PAGE and transferred to PVDF membrane, and then immunoblotted with anti-alpha tubulin and Rpn13 antibodies.
# MM.1S cells, which were treated with DMSO control, bortezomib, or WL40 at indicated concentration for 3 hours; protein lysates were analyzed for different proteasome activities (CT-L, chymotrypsin-like; T-L, trypsin-like; C-L, caspase-like). FIG. 20B is a bar graph showing percent proteasome activity after normalization with DMSO control (mean±SD; n=3). Recombinant 20S proteasome was incubated with DMSO, bortezomib, or WL40 for 30 minutes, followed by assessment of the above-noted proteasome activities. FIG. 20C MM.1S cells were pretreated with exemplary proteasome inhibitor MG132 (10 μM) for 1 hour, followed by addition of WL40 (400 nM) for 8 hours. […] Total protein lysates were subjected to immunoblots for Rpn13 and α-tubulin. […] FIG. 20E ANBL6.BR cells were treated with WL40 (400 nM) or RA190 (500 nM) for 16 hours; protein lysates were subjected to immunoblot analysis using anti-Rpn13 or anti-β-actin Abs.
# Cellular protein extracts were prepared using RIPA lysis buffer (50 mM Tris-HCl, 150 mM NaCl, 1% NP-40, 0.5% sodium deoxycholate, and 0.1% SDS). Protein lysates were subjected to immunoblotting using antibodies against poly ADP ribose polymerase (PARP, BD Bioscience Pharmingen, San Diego, Calif.), caspase 3, caspase 8, p53 (Santa Cruz Biotechnology), caspase 9, p-eIF2a (Abeam, Cambridge, Mass.), caspase 7, cyclin B1, CDC25C, CDCl2, p21, Rpn13, PERK, BIP, Calnexin, GFP, LC3A/B, α-tubulin (Cell Signaling, Beverly, Mass.), polyubiquitin (Enzo Life Sciences, Inc., Farmingdale, N.Y.), or β-actin (Sigma-Aldrich, St. Louis, Mo.).
# Next, it was examined whether WL40 decreases cellular Rpn13 levels in MM cells. MM.1S cells were treated with various concentrations of WL40 (20 0 nM, 400 nM, or 800 nM) for 4 hours, 8 hours, and 16 hours; protein lysates were then analyzed for Rpn13 levels using immunoblot analysis. […] Decrease in Rpn13 levels was detectable as early as 8 hours after WL40 treatment and maximally (95%) reduced at 16 hours. Rpn13 protein level reduction was not observed with RA190 treatment (FIG. 19E, lower panel). There was no change in protein levels of tubulin, used as a loading control (FIG. 19E). To further corroborate the findings, MM.1S cells were treated with WL40, and then analyzed intracellular alterations in Rpn13 using flow cytometry.
# Sequence of RPN13 (Q16186 whole entry): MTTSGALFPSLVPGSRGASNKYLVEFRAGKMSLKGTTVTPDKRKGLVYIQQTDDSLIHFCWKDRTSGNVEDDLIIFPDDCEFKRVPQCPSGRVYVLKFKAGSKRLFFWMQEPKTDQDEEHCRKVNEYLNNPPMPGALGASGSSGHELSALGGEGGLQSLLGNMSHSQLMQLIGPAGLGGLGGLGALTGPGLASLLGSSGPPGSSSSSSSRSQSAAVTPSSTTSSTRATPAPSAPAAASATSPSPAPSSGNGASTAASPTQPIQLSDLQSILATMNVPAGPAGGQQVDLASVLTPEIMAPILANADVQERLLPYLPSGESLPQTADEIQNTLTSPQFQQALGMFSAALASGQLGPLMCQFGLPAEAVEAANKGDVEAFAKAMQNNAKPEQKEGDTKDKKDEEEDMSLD
# Sequence of CRBN-DDB1 (Q96SW2 whole entry): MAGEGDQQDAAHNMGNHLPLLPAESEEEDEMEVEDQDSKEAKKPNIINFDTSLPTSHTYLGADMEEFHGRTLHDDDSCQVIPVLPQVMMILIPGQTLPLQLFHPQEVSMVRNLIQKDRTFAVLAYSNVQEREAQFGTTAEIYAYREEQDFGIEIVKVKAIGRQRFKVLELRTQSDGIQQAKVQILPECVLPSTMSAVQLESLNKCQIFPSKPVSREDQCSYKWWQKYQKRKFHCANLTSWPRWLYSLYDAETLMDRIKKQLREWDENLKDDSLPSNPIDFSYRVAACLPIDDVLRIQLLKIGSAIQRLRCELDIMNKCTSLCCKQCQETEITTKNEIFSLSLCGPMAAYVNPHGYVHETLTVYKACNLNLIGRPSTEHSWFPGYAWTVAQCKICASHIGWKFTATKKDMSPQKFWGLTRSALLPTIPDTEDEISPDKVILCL
# Sequence of CRBN-DDB1 (Q16531 whole entry partner): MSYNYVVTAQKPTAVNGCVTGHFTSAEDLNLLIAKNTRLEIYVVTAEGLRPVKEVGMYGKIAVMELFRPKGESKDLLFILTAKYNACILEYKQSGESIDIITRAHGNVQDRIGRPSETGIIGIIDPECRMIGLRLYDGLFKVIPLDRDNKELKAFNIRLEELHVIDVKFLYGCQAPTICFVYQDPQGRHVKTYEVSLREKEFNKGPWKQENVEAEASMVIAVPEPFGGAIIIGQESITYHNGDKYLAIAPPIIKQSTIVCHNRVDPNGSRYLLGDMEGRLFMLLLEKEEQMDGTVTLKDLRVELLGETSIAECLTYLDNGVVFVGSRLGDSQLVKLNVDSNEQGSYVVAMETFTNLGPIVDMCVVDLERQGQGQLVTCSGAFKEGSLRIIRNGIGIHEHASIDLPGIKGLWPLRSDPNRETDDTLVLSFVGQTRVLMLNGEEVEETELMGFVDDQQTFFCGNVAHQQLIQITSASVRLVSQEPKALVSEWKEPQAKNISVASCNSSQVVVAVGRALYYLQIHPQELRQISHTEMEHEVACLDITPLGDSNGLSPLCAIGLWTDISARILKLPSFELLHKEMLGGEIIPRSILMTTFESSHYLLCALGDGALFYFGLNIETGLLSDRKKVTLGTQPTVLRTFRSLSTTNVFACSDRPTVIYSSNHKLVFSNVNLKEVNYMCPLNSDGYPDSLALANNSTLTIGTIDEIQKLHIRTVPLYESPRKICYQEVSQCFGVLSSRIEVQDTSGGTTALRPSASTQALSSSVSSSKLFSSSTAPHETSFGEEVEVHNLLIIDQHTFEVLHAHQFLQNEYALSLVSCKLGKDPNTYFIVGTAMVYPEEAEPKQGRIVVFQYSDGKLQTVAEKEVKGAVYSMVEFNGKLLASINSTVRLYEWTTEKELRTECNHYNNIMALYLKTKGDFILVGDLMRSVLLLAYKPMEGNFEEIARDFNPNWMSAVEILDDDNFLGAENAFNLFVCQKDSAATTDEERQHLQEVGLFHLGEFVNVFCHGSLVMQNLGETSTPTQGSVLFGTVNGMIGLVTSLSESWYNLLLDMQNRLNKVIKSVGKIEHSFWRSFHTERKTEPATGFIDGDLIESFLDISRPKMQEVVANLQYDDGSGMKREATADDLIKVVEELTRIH
smiles,measurement,setting,value
"Cl.N[C@@H](Cc1ccccc1)C(=O)N1C/C(=C/c2ccc(Cl)c(Cl)c2)C(=O)/C(=C\c2ccc(Cl)c(Cl)c2)C1 [RA190, reference compound]",CRBN binding,[1],did not show any binding to CRBN
same,Ub-GFP levels / proteasome function (immunoblot),"[2]; 312 μM, 625 μM, 1250 μM, 2500 μM, 5000 μM",blocks proteasome function
same,Rpn13 levels (immunoblot),[3],not observed
O=C1CCC(N2C(=O)c3cccc(NCCOCCOCCOCCC(=O)N[C@@H](Cc4ccccc4)C(=O)N4C/C(=C\c5ccc(Cl)c(Cl)c5)C(=O)/C(=C/c5ccc(Cl)c(Cl)c5)C4)c3C2=O)C(=O)N1 (some centres unmarked) [WL40],CRBN binding,[1],interacts with the E3 ubiquitin receptor CRBN
same,Ub-GFP levels / proteasome function (immunoblot),"[2]; WL40, WL44 0.5-2.0 μM, RA190 1 μM",block proteasome function; also recorded: increases GFP levels
same,Rpn13 levels (immunoblot),[3],degrade Rpn13; also recorded: marked decrease in Rpn13 levels
same,time at which decrease in Rpn13 levels is detectable,[3]; after WL40 treatment,8 h
same,maximal reduction of Rpn13 levels,[3]; at 16 hours,95%

# Reference: patent US11702402B2, “Small molecules that block proteasome-associated ubiquitin receptor RPN13 function and uses thereof” (DANA-FARBER CANCER INSTITUTE, INC., priority 2018, dated 2023)
